For one data set, the target named is T1, NADPH-oxidase (Homo sapiens, UniProt P04839).
T1 construct: endogenous in cells; host or cells: human neutrophils isolated from buffy coat
T1 sequence (P04839 1-570): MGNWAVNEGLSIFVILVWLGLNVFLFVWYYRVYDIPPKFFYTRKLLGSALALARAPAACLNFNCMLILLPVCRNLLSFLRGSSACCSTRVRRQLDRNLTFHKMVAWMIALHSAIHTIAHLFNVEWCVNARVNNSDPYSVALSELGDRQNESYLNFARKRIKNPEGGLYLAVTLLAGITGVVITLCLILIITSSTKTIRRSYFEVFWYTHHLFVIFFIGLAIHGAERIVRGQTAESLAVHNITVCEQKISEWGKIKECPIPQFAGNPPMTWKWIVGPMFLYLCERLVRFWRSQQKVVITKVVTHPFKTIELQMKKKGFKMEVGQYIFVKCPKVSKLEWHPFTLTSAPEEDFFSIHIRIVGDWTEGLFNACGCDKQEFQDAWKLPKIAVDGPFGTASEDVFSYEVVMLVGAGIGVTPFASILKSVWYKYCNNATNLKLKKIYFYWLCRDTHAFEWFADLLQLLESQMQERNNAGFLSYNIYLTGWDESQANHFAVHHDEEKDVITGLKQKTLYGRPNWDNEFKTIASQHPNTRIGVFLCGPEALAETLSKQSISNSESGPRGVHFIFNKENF
Nature of the data set: Oxidase Inhibition Assay (PMA-stimulated superoxide-mediated reduction of Cytochrome c, whole cells). Format: cell-based. The method, then: Whole cells (human neutrophils) are incubated with a pro-inflammatory agonist phorbol myristate acetate (PMA) in the presence or absence of test compound to measure the superoxide-mediated reduction of Cytochrome c at 550 nm. Inhibition of the oxidase is determined by a decreased absorbance at 550 nm, in response to test compound, relative to the absorbance seen with a vehicle control.
The buffy coat from one unit of blood is split evenly into four 50 mL tubes. To each tube 30 mL 3% Dextran (in 0.9% NaCl) is added and the tubes are inverted to mix. Tubes are allowed to sit undisturbed for 25 minutes. The resulting supernatant is recovered into four fresh tubes and centrifuged for 10 minutes at 600×g, 4° C. The supernatant is discarded and pellets are resuspended in 35 mL 0.9% saline. 10 mL Ficoll-Paque PLUS (Pharmacia Biotech AB) is layered beneath the cell suspension and centrifuged at 600×g for 40 minutes at room temperature. The supernatant is again discarded and tubes are tapped to loosen the resulting pellets. 20 mL 0.2% ice cold saline is added for 30 seconds followed by 20 mL 1.6% ice cold saline to lyse the remaining erythrocytes in the pellets. The pellets are centrifuged for 10 minutes at 600×g, 4° C., and the supernatant is discarded. The neutrophil pellets are resuspended in HBSS-glucose buffer (1 mg/mL), adding 2.5 mL to each tube for a total volume of 10 mL. The cell suspension is then counted on a hemocytometer.
The cell suspension is diluted to a concentration of 5×10^6/mL in HBSS-glucose and treated with 1 μg/mL Cytochalasin B (5 mg/mL DMSO) for 10 minutes at 37° C. in a shaking water bath. Cells are diluted to 6×10^5 cells/mL in 92 μM Cytochrome C for a final concentration of 5×10^4 cells/well.
The NADPH-oxidase assay is run on a Biomek 2000 workstation. The workstation adds 2.5 μL compound per well from source plates plus 12.5 μL per well 4 μM PMA (agonist). This volume is brought up to 100 μL total per well in the assay plates upon the addition of the prepared cells (85 μL). The final concentration of drug is 25 μM and PMA is 0.5 μM under these conditions.
The QC curve is a dose-response curve (from about 31.25 nM to about 4000 nM) for competitive binding against a known oxidase inhibitor such as DPI (diphenylene iodonium chloride). The format used for each compound tested is as follows:
The plates are incubated for 1 hour at 37° C. without CO2. The plates are then incubated at room temperature for 30 minutes and the absorbance is read at 550 nm.

Data set [1] concerns potassium peroxochromate arthritis. Conditions: mice, cited from earlier work.
Data set [2] concerns reactive oxygen species (ROS). Conditions: human patients with rheumatoid arthritis and osteoarthritis, pharmacological doses; cited from earlier work.

Counter-ions that a name gives are not always drawn. Like-named read-outs stand apart in the source and are kept apart here.

We go through 4 compounds from patent US7476672B2, “Acetylenic compounds useful in treating inflammatory disorders” (Janssen Pharmaceutica N.V., priority 2002, dated 2009).

Consider `CC(COc1ccc(C#Cc2ccc(F)cc2)cc1Cl)NCc1ccc(CN)cc1` (stereo not shown) (as salt: HCl) [Compound 26, N-[2-[2-chloro-4-[(4-fluorophenyl)ethynyl]phenoxy]-1-methylethyl]-1,4-benzenedimethanamine], for which the melting point (usually the temperature, or range, at which the solid turns liquid) was over 300 °C.

In turn, `Cc1cc(C#Cc2ccc(Cl)cc2)ccc1OCCNCc1ccc(CNCCC2CCCN2C)cc1` (stereo not shown) [Compound 13, N^1-[2-[4-[(4-chlorophenyl)ethynyl]-2-methylphenoxy]ethyl]-N^4-[2-(1-methyl-2-pyrrolidinyl)ethyl]-1,4-benzenedimethanamine] displayed a melting point of 251 to 254 °C. Besides, the IC50 – broadly, the midpoint of a concentration-inhibition curve – on NADPH-oxidase (human neutrophils, PMA 0.5 μM, absorbance at 550 nm) was found to be 1 µM.

For `c1ccc2c(c1)[I+]c1ccccc1-2` [DPI, diphenylene iodoniumchloride], on NADPH-oxidase (QC wells G-H, 2.5 μL of 10 μM DPI, at 250 nm (so in the source), agonist added), the inhibition (usually the percentage by which the read-out fell short of the control) at 10 µM was about 70%. For the same compound, the results for the “inhibition of the arthritis” value in data set [1] (10 mmol/kg) and in data set [1] (daily doses of 2.8 μmol/kg) were “Complete inhibition” and 50%, respectively.

On to `CN1C(C(=O)Nc2ccccn2)=C(O)c2ccccc2S1(=O)=O` [Piroxicam], for which, in data set [2], the “reduction of levels of ROS” value is 25%.
